The target of one test is T1, HCV NS5B (Hepatitis C virus genotype 1b, UniProt Q9WMX2).
T1 construct: The protein was expressed with an 18 amino acid C-terminal truncation to enhance the solubility; made in house; host or cells: E. coli BL21(DE3)
In words: HCV NS5B RdRp enzyme assay. In kind it is biochemical. To be noted: HCV NS5B RdRp genotype 1b enzyme. As for the experimental part:
HCV NS5B RdRp cloning, expression, and purification. The cDNA encoding the NS5B protein of HCV, genotype 1b, was cloned into the pET21a expression vector. The protein was expressed with an 18 amino acid C-terminal truncation to enhance the solubility. The E. coli competent cell line BL21(DE3) was used for expression of the protein. Cultures were grown at 37° C. for ˜4 hours until the cultures reached an optical density of 2.0 at 600 nm. The cultures were cooled to 20° C. and induced with 1 mM IPTG. Fresh ampicillin was added to a final concentration of 50 μg/ml and the cells were grown overnight at 20° C.
Cell pellets (3 L) were lysed for purification to yield 15-24 mgs of purified NS5B. The lysis buffer consisted of 20 mM Tris-HCl, pH 7.4, 500 mM NaCl, 0.5% triton X-100, 1 mM DTT, 1 mM EDTA, 20% glycerol, 0.5 mg/ml lysozyme, 10 mM MgCl2, 15 ug/ml deoxyribonuclease I, and Complete™ protease inhibitor tablets (Roche). After addition of the lysis buffer, frozen cell pellets were resuspended using a tissue homogenizer. To reduce the viscosity of the sample, aliquots of the lysate were sonicated on ice using a microtip attached to a Branson sonicator. The sonicated lysate was centrifuged at 100,000×g for 1 hr at 4° C. and filtered through a 0.2 μm filter unit (Corning).
The protein was purified using two sequential chromatography steps: Heparin sepharose CL-6B and polyU sepharose 4B (Pharmacia). The chromatography buffers were identical to the lysis buffer but contained no lysozyme, deoxyribonuclease I, MgCl2 or protease inhibitor and the NaCl concentration of the buffer was adjusted according to the requirements for charging the protein onto the column. Each column was eluted with a NaCl gradient which varied in length from 5-50 column volumes depending on the column type. After the final chromatography step, the resulting purity of the enzyme is >90% based on SDS-PAGE analysis. The enzyme was aliquoted and stored at −80° C.
Standard HCV NS5B RdRp enzyme assay. HCV RdRp genotype 1b assays were run in a final volume of 60 μl in 96 well plates (Corning 3600). The assay buffer is composed of 20 mM Hepes, pH 7.5, 2.5 mM KCl, 2.5 mM MgCl2, 1 mM DTT, 1.6 U RNAse inhibitor (Promega N2515), 0.01 mg/ml BSA (Sigma B6917), and 2% glycerol. All compounds were serially diluted (3-fold) in DMSO and diluted further in water such that the final concentration of DMSO in the assay was 2%. HCV RdRp genotype 1b enzyme was used at a final concentration of 28 nM. A polyA template was used at 6 nM, and a biotinylated oligo-dT12 primer was used at 180 nM final concentration. Template was obtained commercially (Amersham 27-4110). Biotinylated primer was prepared by Sigma Genosys. 3H-UTP was used at 0.6 μCi (0.29 μM total UTP). Reactions were initiated by the addition of enzyme, incubated at 30° C. for 60 min, and stopped by adding 25 μl of 50 mM EDTA containing SPA beads (4 μg/μl, Amersham RPNQ 0007). Plates were read on a Packard Top Count NXT after >1 hr incubation at room temperature.
Modified HCV NS5B RdRp enzyme assay. A modified enzyme assay was performed essentially as described for the standard enzyme assay except for the following: The biotinylated oligo dT12 primer was precaptured on streptavidin-coated SPA beads by mixing primer and beads in assay buffer and incubating at room temperature for one hour. Unbound primer was removed after centrifugation. The primer-bound beads were resuspended in 20 mM Hepes buffer, pH 7.5 and used in the assay at final concentrations of 20 nM primer and 0.67 μg/μl beads. Order of addition in the assay: enzyme (1.75 nM) was added to diluted compound followed by the addition of a mixture of template (0.36 nM), 3H-UTP (0.6 μCi, 0.29 μM), and primer-bound beads, to initiate the reaction; concentrations given are final. Reactions were allowed to proceed for 4 hours at 30° C.
IC50 values for compounds were determined using seven different [I]. […]

In another test the test system is HCV replicon cells. In words: HCV replicon FRET / luciferase assay. The format is cell-based. To be noted: Hepatitis C virus; 50% reduction in FRET or luciferase activity in HCV replicon cells. On the procedure: FRET Assay Preparation. The HCV FRET screening assay was performed in 96-well cell culture plates. The FRET peptide (Anaspec, Inc.) (Taliani et al., Anal. Biochem. 1996, 240, 60-67) contains a fluorescence donor, EDANS, near one end of the peptide and an acceptor, DABCYL, near the other end. The fluorescence of the peptide is quenched by […] resonance energy transfer (RET) between the donor and the acceptor, but as the NS3 protease cleaves the peptide the products are released from RET quenching and the fluorescence of the donor becomes apparent. The assay reagent was made as follows: 5× cell Luciferase cell culture lysis reagent from Promega (#E153A) diluted to 1× with dH2O, NaCl added to 150 mM final, the FRET peptide diluted to 20 μM final from a 2 mM stock.
To prepare plates, HCV replicon cells, with or without a Renilla luciferase reporter gene, were trypsinized and plated in a 96-well plate with titrated test compounds added in columns 3 through 12; columns 1 and 2 contained a control compound (HCV control inhibitor), and the bottom row contained cells with DMSO only. The plates were then placed in a CO2 incubator at 37° C.
Assays. Subsequent to addition of the test compounds described above (FRET Assay Preparation), at various times the plate was removed and Alamar blue solution (Trek Diagnostics, #00-100) was added to measure cellular toxicity. After reading in a Cytoflour 4000 instrument (PE Biosystems), plates were rinsed with PBS and then used for FRET assay by the addition of 30 ul of the FRET peptide assay reagent described above (FRET Assay Preparation) per well. The plate was then placed into the Cytoflour 4000 instrument which had been set to 340 excite/490 emission, automatic mode for up to 20 cycles and the plate read in a kinetic mode. Typically, the signal to noise using an endpoint analysis after the reads was at least three-fold. Alternatively, after Alamar blue reading, plates were rinsed with PBS, then used for luciferase assay using the Promega Dual-Glo Luciferase Assay System or the Promega EnduRen Live Cell Substrate assay.
Compound analysis was performed by quantification of the relative HCV replicon inhibition and the relative cytotoxicity values. To calculate cytoxicity values, the average Alamar Blue fluorescence signals from the control wells were set as 100% non-toxic. The individual signals in each of the compound test wells were then divided by the average control signal and multiplied by 100% to determine […]. To calculate the HCV replicon inhibition values, an average background value was obtained from the two wells containing the highest amount of HCV control inhibitor at the end of the assay period. These numbers were similar to those obtained from naïve Huh-7 cells. The background numbers were then subtracted from the average signal obtained from the control wells and this number was used as 100% activity. The individual signals in each of the compound test wells were then divided by the averaged control values after background subtraction and multiplied by 100% to determine percent activity. EC50 values were calculated as the concentration which caused a 50% reduction in FRET or luciferase activity. The two numbers generated for the compound plate, percent cytoxicity and percent activity, were used to determine compounds of interest for further analysis.
In general terms: Replicon systems follow genome replication, usually without infectious particles.

pEC50, pIC50: −log10 of the molar value.

One may read the pIC50 as the IC50 on a negative log10 scale, so that one unit is a factor of ten. A high value points to a low IC50. The pEC50 is −log10 of the EC50, conventionally taken in molar units. Lower therefore signals a large EC50.

T1 sequence (Q9WMX2 2420-2992): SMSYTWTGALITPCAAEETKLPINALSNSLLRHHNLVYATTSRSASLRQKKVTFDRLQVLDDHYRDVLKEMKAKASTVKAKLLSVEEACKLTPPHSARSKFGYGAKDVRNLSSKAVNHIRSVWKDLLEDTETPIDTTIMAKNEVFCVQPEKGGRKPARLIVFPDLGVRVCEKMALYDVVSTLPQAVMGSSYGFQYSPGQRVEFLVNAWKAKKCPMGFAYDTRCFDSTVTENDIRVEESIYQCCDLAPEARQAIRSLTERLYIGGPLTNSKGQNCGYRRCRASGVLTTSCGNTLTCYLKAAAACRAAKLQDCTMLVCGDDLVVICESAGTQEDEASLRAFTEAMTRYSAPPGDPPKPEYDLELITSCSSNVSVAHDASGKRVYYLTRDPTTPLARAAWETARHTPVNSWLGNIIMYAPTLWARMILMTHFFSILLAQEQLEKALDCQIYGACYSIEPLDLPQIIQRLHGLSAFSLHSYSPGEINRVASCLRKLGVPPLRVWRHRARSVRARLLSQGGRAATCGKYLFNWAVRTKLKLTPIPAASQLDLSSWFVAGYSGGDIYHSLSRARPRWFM

In the case of `CCC1(S(=O)(=O)NC(=O)c2ccc3c(C4CCCCC4)c4n(c3c2)CC2(C(=O)N3C5CCC3CN(C)C5)CC2c2cc(OC)ccc2-4)CC1` (stereo not shown), the pIC50 against HCV NS5B was 6.30 to 8.38. Further, in the test on HCV replicon cells, the negative logarithm of the EC50 (pEC50) was 6.30 to 8.38.
The compound `COc1ccc2c(c1)C1CC1(C(=O)N1C3CCC1CN(C)C3)Cn1c-2c(C2CCCCC2)c2ccc(C(=O)NS(=O)(=O)C3(CC4CC4)CC3)cc21` (stereo not shown) gave a negative-log IC50 (pIC50) against HCV NS5B of 6.30 to 8.38. The pEC50 in the test with HCV replicon cells is 6.30 to 8.38.
Take `COc1ccc2c(c1)C1CC1(C(=O)N1C3CCC1CN(C)C3)Cn1c-2c(C2CCCCC2)c2ccc(C(=O)NS(=O)(=O)c3cccc4cccnc34)cc21` (stereo not shown): the negative-log IC50 (pIC50) on HCV NS5B is 6.30 to 8.38. Besides, in the test with HCV replicon cells, the pEC50 was 6.30 to 8.38.
On HCV NS5B, `COCCS(=O)(=O)NC(=O)c1ccc2c(C3CCCCC3)c3n(c2c1)C[C@@]1(C(=O)N2C4CCC2CN(C)C4)C[C@H]1c1cc(OC)ccc1-3` showed a pIC50 of 6.30 to 8.38. In the test with HCV replicon cells, this compound showed a pEC50 of 6.30 to 8.38.
On to `COc1ccc2c(c1)[C@@H]1C[C@]1(C(=O)N1C3CCC1CN(C)C3)Cn1c-2c(C2CCCCC2)c2ccc(C(=O)NS(=O)(=O)CC3CCCO3)cc21` (stereo partly shown), for which the pIC50 against HCV NS5B is 6.30 to 8.38. The pEC50 in the test with HCV replicon cells was 6.30 to 8.38.
For `COc1ccc2c(c1)C1CC1(C(=O)N1C3CCC1CN(C)C3)Cn1c-2c(C2CCCCC2)c2ccc(C(=O)NS(=O)(=O)Cc3ccccn3)cc21` (stereo not shown), on HCV NS5B, the pIC50 was 6.30 to 8.38. This compound also had a pEC50 in the test on HCV replicon cells of 6.30 to 8.38.
In turn, `COc1ccc2c(c1)C1CC1(C(=O)N1C3CCC1CN(C)C3)Cn1c-2c(C2CCCCC2)c2ccc(C(=O)NS(=O)(=O)Cc3cccc(Cl)c3)cc21` (stereo not shown) had a negative-log IC50 (pIC50) against HCV NS5B of 6.30 to 8.38. For the same compound, the pEC50 in the test with HCV replicon cells was 6.30 to 8.38.
Compound `COc1ccc2c(c1)C1CC1(C(=O)N1C3CCC1CN(C)C3)Cn1c-2c(C2CCCCC2)c2ccc(C(=O)NS(=O)(=O)Cc3cc(Cl)cc(Cl)c3)cc21` (stereo not shown) showed a pIC50 on HCV NS5B of 6.30 to 8.38. This compound gave a pEC50 in the test with HCV replicon cells of 6.30 to 8.38.
Turning to `COc1ccc2c(c1)C1CC1(C(=O)N1C3CCC1CN(C)C3)Cn1c-2c(C2CCCCC2)c2ccc(C(=O)NS(=O)(=O)c3sc(C)nc3C)cc21` (stereo not shown), the pIC50 at HCV NS5B is 6.30 to 8.38. In the test on HCV replicon cells, this compound gave a pEC50 of 6.30 to 8.38.
`COc1ccc2c(c1)C1CC1(C(=O)N1C3CCC1CN(C)C3)Cn1c-2c(C2CCCCC2)c2ccc(C(=O)NS(=O)(=O)c3nc[nH]n3)cc21` (stereo not shown): the pIC50 against HCV NS5B is 6.30 to 8.38. In the test with HCV replicon cells, the pEC50 is 6.30 to 8.38.
Regarding `C=CS(=O)(=O)NC(=O)c1ccc2c(C3CCCCC3)c3n(c2c1)CC1(C(=O)N2C4CCC2CN(C)C4)CC1c1cc(OC)ccc1-3` (stereo not shown), the pIC50 against HCV NS5B is 6.30 to 8.38. In the test on HCV replicon cells, this compound gave a pEC50 of 6.30 to 8.38.
`COc1ccc2c(c1)C1CC1(C(=O)N1C3CCC1CN(C)C3)Cn1c-2c(C2CCCCC2)c2ccc(C(=O)NS(=O)(=O)C=C(C)C)cc21` (stereo not shown) had a pIC50 against HCV NS5B of 6.30 to 8.38. Moreover, the pEC50 with HCV replicon cells is 6.30 to 8.38.
For `COc1ccc2c(c1)C1CC1(C(=O)N1C3CCC1CN(C)C3)Cn1c-2c(C2CCCCC2)c2ccc(C(=O)NS(=O)(=O)c3ncccn3)cc21` (stereo not shown), at HCV NS5B, the pIC50 was 6.30 to 8.38. Besides, the pEC50 in the test with HCV replicon cells is 6.30 to 8.38.
At HCV NS5B, `COc1ccc2c(c1)C1CC1(C(=O)N1C3CCC1CN(C)C3)Cn1c-2c(C2CCCCC2)c2ccc(C(=O)NS(=O)(=O)c3nc(C)cc(C)n3)cc21` (stereo not shown) showed a pIC50 of 6.30 to 8.38. Also, the negative logarithm of the EC50 (pEC50) with HCV replicon cells is 6.30 to 8.38.

The values are drawn from patent US8129367B2, “Compounds for the treatment of Hepatitis C” (Bristol-Myers Squibb Company, priority 2007, dated 2012).
